Measurements published in ChEMBL document CHEMBL2434882, “A novel [1,2,4] triazolo [1,5-a] pyrimidine-based phenyl-linked steroid dimer: synthesis and its cytotoxic activity” (Eur J Med Chem, 2013).
Active and inactive are the calls of the source. No cut-off for these calls is given here.

Key:
[1] = Downregulation of MDM2 protein expression in human EC109 cells at 5 to 10 uM after 24 hrs by Western blot analysis; format: functional, cell-based; details: ECa-109
[2] = system: ECa-109; assay: Disruption of mitochondrial membrane potential in human EC109 cells after 24 hrs by JC1 staining-based flow cytometric analysis; format: functional, cell-based
[3] = Disruption of mitochondrial membrane potential in human EC109 cells at 10 uM after 24 hrs by JC1 staining-based flow cytometric analysis (reference value: 8.1%); format: functional, ECa-109
[4] = system: ECa-109 cell line; assay: Induction of apoptosis in human EC109 cells assessed as change in cellular morphology at 1.25 to 20 uM after 24 hrs by inverted microscopic analysis; format: functional, cell-based
[5] = Cell cycle arrest in human EC109 cells assessed as accumulation at G2/M phase after 12 to 24 hrs by propidium iodide staining-based flow cytometric analysis; format: functional; details: ECa-109
[6] = Cell cycle arrest in human EC109 cells assessed as accumulation at S phase at 10 uM after 24 hrs by propidium iodide staining-based flow cytometric analysis (reference value: 37.99%); format: functional; details: ECa-109
[7] = Cell cycle arrest in human EC109 cells assessed as accumulation at G2/M phase at 5 uM after 24 hrs by propidium iodide staining-based flow cytometric analysis (reference value: 6.31%); format: functional; details: ECa-109
[8] = Cell cycle arrest in human EC109 cells assessed as accumulation at S phase at 5 uM after 24 hrs by propidium iodide staining-based flow cytometric analysis (reference value: 37.99%); format: functional; details: ECa-109
[9] = Cell cycle arrest in human EC109 cells assessed as accumulation at G0/G1 phase at 5 uM after 24 hrs by propidium iodide staining-based flow cytometric analysis (reference value: 51.57%); format: functional; details: ECa-109
[10] = Cell cycle arrest in human EC109 cells assessed as accumulation at G0/G1 phase at 2.5 uM after 24 hrs by propidium iodide staining-based flow cytometric analysis (reference value: 51.57%); format: functional; details: ECa-109
[11] = Cell cycle arrest in human EC109 cells assessed as accumulation at G2/M phase at 10 uM after 12 hrs by propidium iodide staining-based flow cytometric analysis (reference value: 13.72%); format: functional; details: ECa-109
[12] = Cell cycle arrest in human EC109 cells assessed as accumulation at G0/G1 phase at 10 uM after 12 hrs by propidium iodide staining-based flow cytometric analysis (reference value: 50.87%); format: functional; details: ECa-109
[13] = Cell cycle arrest in human EC109 cells assessed as accumulation at G0/G1 phase at 5 uM after 12 hrs by propidium iodide staining-based flow cytometric analysis (reference value: 50.87%); format: functional; details: ECa-109
[14] = Cell cycle arrest in human EC109 cells assessed as accumulation at G2/M phase at 2.5 uM after 12 hrs by propidium iodide staining-based flow cytometric analysis (reference value: 13.72%); format: functional; details: ECa-109
[15] = Cell cycle arrest in human EC109 cells assessed as accumulation at S phase at 2.5 uM after 12 hrs by propidium iodide staining-based flow cytometric analysis (reference value: 33.29%); format: functional; details: ECa-109
[16] = Cell cycle arrest in human EC109 cells assessed as accumulation at G0/G1 phase at 2.5 uM after 12 hrs by propidium iodide staining-based flow cytometric analysis (reference value: 50.87%); format: functional; details: ECa-109
[17] = system: ECa-109 cell line; assay: Induction of apoptosis in human EC109 cells assessed as live cells at 40 uM after 24 hrs by annexin V-FITC/propidium iodide staining-based flow cytometric analysis (reference value: 93.6%); format: functional
[18] = system: ECa-109 cell line; assay: Induction of apoptosis in human EC109 cells assessed as live cells at 20 uM after 24 hrs by annexin V-FITC/propidium iodide staining-based flow cytometric analysis (reference value: 93.6%); format: functional
[19] = system: ECa-109 cell line; assay: Induction of apoptosis in human EC109 cells assessed as damaged cells at 20 uM after 24 hrs by annexin V-FITC/propidium iodide staining-based flow cytometric analysis (reference value: 0.1%); format: functional
[20] = system: ECa-109 cell line; assay: Induction of apoptosis in human EC109 cells assessed as late apoptotic cells at 20 uM after 24 hrs by annexin V-FITC/propidium iodide staining-based flow cytometric analysis (reference value: 2.5%); format: functional
[21] = system: ECa-109 cell line; assay: Induction of apoptosis in human EC109 cells assessed as late apoptotic cells at 10 uM after 24 hrs by annexin V-FITC/propidium iodide staining-based flow cytometric analysis (reference value: 2.5%); format: functional
[22] = system: ECa-109 cell line; assay: Induction of apoptosis in human EC109 cells assessed as late apoptotic cells at 5 uM after 24 hrs by annexin V-FITC/propidium iodide staining-based flow cytometric analysis (reference value: 2.5%); format: functional
[23] = system: ECa-109 cell line; assay: Induction of apoptosis in human EC109 cells assessed as early apoptotic cells at 5 uM after 24 hrs by annexin V-FITC/propidium iodide staining-based flow cytometric analysis (reference value: 3.8%); format: functional
[24] = system: ECa-109 cell line; assay: Induction of apoptosis in human EC109 cells assessed as live cells at 2.5 uM after 24 hrs by annexin V-FITC/propidium iodide staining-based flow cytometric analysis (reference value: 93.6%); format: functional
[25] = system: ECa-109 cell line; assay: Induction of apoptosis in human EC109 cells assessed as damaged cells at 2.5 uM after 24 hrs by annexin V-FITC/propidium iodide staining-based flow cytometric analysis (reference value: 0.1%); format: functional
[26] = system: ECa-109 cell line; assay: Induction of apoptosis in human EC109 cells assessed as late apoptotic cells at 2.5 uM after 24 hrs by annexin V-FITC/propidium iodide staining-based flow cytometric analysis (reference value: 2.5%); format: functional
[27] = system: ECa-109 cell line; assay: Induction of apoptosis in human EC109 cells assessed as early apoptotic cells at 20 uM after 12 hrs by annexin V-FITC/propidium iodide staining-based flow cytometric analysis (reference value: 6.1%); format: functional
[28] = system: ECa-109 cell line; assay: Induction of apoptosis in human EC109 cells assessed as live cells at 10 uM after 12 hrs by annexin V-FITC/propidium iodide staining-based flow cytometric analysis (reference value: 92.1%); format: functional
[29] = system: ECa-109 cell line; assay: Induction of apoptosis in human EC109 cells assessed as late apoptotic cells at 10 uM after 12 hrs by annexin V-FITC/propidium iodide staining-based flow cytometric analysis (reference value: 1.4%); format: functional
[30] = system: ECa-109 cell line; assay: Induction of apoptosis in human EC109 cells assessed as early apoptotic cells at 10 uM after 12 hrs by annexin V-FITC/propidium iodide staining-based flow cytometric analysis (reference value: 6.1%); format: functional
[31] = system: ECa-109 cell line; assay: Induction of apoptosis in human EC109 cells assessed as early apoptotic cells at 2.5 uM after 12 hrs by annexin V-FITC/propidium iodide staining-based flow cytometric analysis (reference value: 6.1%); format: functional
[32] = Cytotoxicity against human EC109 cells assessed as growth inhibition after 72 hrs by MTT assay; format: functional, cell-based; details: ECa-109, 72 h
[33] = system: ECa-109 cell line; assay: Induction of apoptosis in human EC109 cells assessed as increase in late apoptotic cells at 2.5 to 40 uM by annexin V-FITC/propidium iodide staining-based flow cytometric analysis; format: functional, cell-based; details: TDE = time-dependent effect
[34] = system: ECa-109 cell line; assay: Induction of apoptosis in human EC109 cells assessed as increase in late apoptotic cells after 12 to 24 hrs by annexin V-FITC/propidium iodide staining-based flow cytometric analysis; format: functional, cell-based
[35] = system: ECa-109 cell line; assay: Induction of apoptosis in human EC109 cells assessed as induction of cytochrome c release from mitochondria at 5 to 10 uM after 24 hrs by Western blot analysis; format: functional, cell-based

SMILES: C[C@]12CC[C@H](O)CC1=CC[C@@H]1[C@@H]2CC[C@]2(C)c3nc4ncnn4c(-c4cccc(-c5c6c(nc7ncnn57)[C@@]5(C)CC[C@H]7[C@@H](CC=C8C[C@@H](O)CC[C@@]87C)[C@@H]5C6)c4)c3C[C@@H]12
- Activity [1]: Active
- Activity [2]: Dose-dependent effect
- Activity [3]: 76.7%
- Activity [4]: Active
- Activity [5]: Dose-dependent effect
- Activity [6]: 28.5%
- Activity [7]: 19.4%
- Activity [8]: 27%
- Activity [9]: 47.1%
- Activity [10]: 52.5%
- Activity [11]: 28.3%
- Activity [12]: 48.6%
- Activity [13]: 52.9%
- Activity [14]: 17.9%
- Activity [15]: 34.2%
- Activity [16]: 48.5%
- Activity [17]: 8.3%
- Activity [18]: 7.2%
- Activity [19]: 2.4%
- Activity [20]: 58.9%
- Activity [21]: 47.7%
- Activity [22]: 12.2%
- Activity [23]: 39.1%
- Activity [24]: 72.3%
- Activity [25]: 0.2%
- Activity [26]: 2.5%
- Activity [27]: 34%
- Activity [28]: 54%
- Activity [29]: 23.4%
- Activity [30]: 19.9%
- Activity [31]: 26.9%
- IC50 [32]: 2360 nM
- Activity [33]: tde
- Activity [34]: Dose-dependent effect
- Activity [35]: Active
